Values of other authors, collected in patent publication US7645466B2, “Methods for deriving, isolating, and/or extracting amino acid compositions from Fenugreek seed” (TSI Group Limited, priority 2004, dated 2010).

Tested on: pancreatic beta cell
Details: micromolar concentrations; direct effect on pancreatic beta cell, glucose dependent

Structure (SMILES): C[C@@H]([C@H](C)O)[C@H](N)C(=O)O [4-hydroxyisoleucine]
- glucose-induced insulin secretion: stimulate glucose-induced insulin secretion in micromolar concentrations
